Legend:
Assay type in all cases: in vivo
[1] = tested on: barnyardgrass (Echinochloa crus-galli); assay: Test G Pre-Emergence Protocol; settings: Echinochloa crus-galli, pre-emergence, 312 h, evaluated after 13 days; for pest or weed control at 15.625 g/ha: 15.625 g ai/ha; for pest or weed control at 15.625 g/ha / pest or weed control at 250 g/ha: read-out: Barnyardgrass damage rating (100=total damage to plant; 0=no damage to plant); for pest or weed control at 62.5 g/ha: 62.5 g ai/ha, 100=total damage to plant, 0=no damage to plant, read-out: Barnyardgrass damage rating; for pest or weed control at 250 g/ha: 250 g ai/ha
Method in brief: (§1)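 Under a 24/16° C day/night regime with 14 h light and 65% humidity, sown pots were sprayed after one day with compound (15.625, 62.5 or 250 g/ha; 50:50 acetone/water, 0.5% Tween 20). Damage was assessed visually 13 days later, 0 to 100.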

corn (Zea mays) [2] = assay: Test G Pre-Emergence Protocol; settings: Zea mays, pre-emergence, 312 h, evaluated after 13 days; for plant injury at 15.625 g/ha: 15.625 g ai/ha; for plant injury at 15.625 g/ha / plant injury at 250 g/ha: read-out: Corn damage rating (100=total damage to plant; 0=no damage to plant); for plant injury at 62.5 g/ha: 62.5 g ai/ha, 100=total damage to plant, 0=no damage to plant, read-out: Corn damage rating; for plant injury at 250 g/ha: 250 g ai/ha
Method in brief: as §1

[3] = tested on: giant foxtail (Setaria faberi); assay: Test G Pre-Emergence Protocol; settings: Setaria faberi, pre-emergence, 312 h, evaluated after 13 days; for pest or weed control at 15.625 g/ha: 15.625 g ai/ha; for pest or weed control at 15.625 g/ha / pest or weed control at 250 g/ha: read-out: Foxtail, Giant damage rating (100=total damage to plant; 0=no damage to plant); for pest or weed control at 62.5 g/ha: 62.5 g ai/ha, 100=total damage to plant, 0=no damage to plant, read-out: Foxtail, Giant damage rating; for pest or weed control at 250 g/ha: 250 g ai/ha
Method in brief: as §1

[4] = tested on: ivy-leaved morning glory (Ipomoea hederacea); assay: Test G Pre-Emergence Protocol; settings: Ipomoea, pre-emergence, 312 h, evaluated after 13 days; for pest or weed control at 15.625 g/ha: 15.625 g ai/ha; for pest or weed control at 15.625 g/ha / pest or weed control at 250 g/ha: read-out: Morningglory, Ivy-leaved damage rating (100=total damage to plant; 0=no damage to plant); for pest or weed control at 62.5 g/ha: 62.5 g ai/ha, 100=total damage to plant, 0=no damage to plant, read-out: Morningglory, Ivy-leaved damage rating; for pest or weed control at 250 g/ha: 250 g ai/ha
Method in brief: as §1

[5] = tested on: redroot pigweed (Amaranthus retroflexus); assay: Test G Pre-Emergence Protocol; settings: Amaranthus retroflexus, pre-emergence, 312 h, evaluated after 13 days; for pest or weed control at 15.625 g/ha: 15.625 g ai/ha; for pest or weed control at 15.625 g/ha / pest or weed control at 250 g/ha: read-out: Pigweed, Redroot damage rating (100=total damage to plant; 0=no damage to plant); for pest or weed control at 62.5 g/ha: 62.5 g ai/ha, 100=total damage to plant, 0=no damage to plant, read-out: Pigweed, Redroot damage rating; for pest or weed control at 250 g/ha: 250 g ai/ha
Method in brief: as §1

[6] = tested on: velvetleaf (Abutilon theophrasti); assay: Test G Pre-Emergence Protocol; settings: Abutilon theophrasti, pre-emergence, 312 h, evaluated after 13 days; for pest or weed control at 15.625 g/ha: 15.625 g ai/ha; for pest or weed control at 15.625 g/ha / pest or weed control at 250 g/ha: read-out: Velvetleaf damage rating (100=total damage to plant; 0=no damage to plant); for pest or weed control at 62.5 g/ha: 62.5 g ai/ha, 100=total damage to plant, 0=no damage to plant, read-out: Velvetleaf damage rating; for pest or weed control at 250 g/ha: 250 g ai/ha
Method in brief: as §1

[7] = tested on: barnyardgrass (Echinochloa crus-galli); assay: Test G Post-Emergence Protocol; settings: Echinochloa crus-galli, post-emergence, 312 h, read-out: Barnyardgrass damage rating; for pest or weed control at 15.625 g/ha: 15.625 g ai/ha, evaluated after 13 days (100=total damage to plant; 0=no damage to plant); for pest or weed control at 62.5 g/ha: 62.5 g ai/ha; for pest or weed control at 62.5 g/ha / pest or weed control at 250 g/ha: evaluated after 13 days, 100=total damage to plant, 0=no damage to plant; for pest or weed control at 250 g/ha: 250 g ai/ha
Method in brief: (§2)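 Post-emergence herbicidal damage, scored visually 0–100 at 13 days. Application at 15.625, 62.5 or 250 g/ha onto 8-day-old plants grown under glasshouse control.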

corn (Zea mays) [8] = assay: Test G Post-Emergence Protocol; settings: Zea mays, post-emergence, 312 h, read-out: Corn damage rating; for plant injury at 15.625 g/ha: 15.625 g ai/ha, evaluated after 13 days (100=total damage to plant; 0=no damage to plant); for plant injury at 62.5 g/ha: 62.5 g ai/ha; for plant injury at 62.5 g/ha / plant injury at 250 g/ha: evaluated after 13 days, 100=total damage to plant, 0=no damage to plant; for plant injury at 250 g/ha: 250 g ai/ha
Method in brief: as §2

[9] = tested on: giant foxtail (Setaria faberi); assay: Test G Post-Emergence Protocol; settings: Setaria faberi, post-emergence, 312 h, read-out: Foxtail, Giant damage rating; for pest or weed control at 15.625 g/ha: 15.625 g ai/ha, evaluated after 13 days (100=total damage to plant; 0=no damage to plant); for pest or weed control at 62.5 g/ha: 62.5 g ai/ha; for pest or weed control at 62.5 g/ha / pest or weed control at 250 g/ha: evaluated after 13 days, 100=total damage to plant, 0=no damage to plant; for pest or weed control at 250 g/ha: 250 g ai/ha
Method in brief: as §2

[10] = tested on: ivy-leaved morning glory (Ipomoea hederacea); assay: Test G Post-Emergence Protocol; settings: Ipomoea, post-emergence, 312 h, read-out: Morningglory, Ivy-leaved damage rating; for pest or weed control at 15.625 g/ha: 15.625 g ai/ha, evaluated after 13 days (100=total damage to plant; 0=no damage to plant); for pest or weed control at 62.5 g/ha: 62.5 g ai/ha; for pest or weed control at 62.5 g/ha / pest or weed control at 250 g/ha: evaluated after 13 days, 100=total damage to plant, 0=no damage to plant; for pest or weed control at 250 g/ha: 250 g ai/ha
Method in brief: as §2

[11] = tested on: redroot pigweed (Amaranthus retroflexus); assay: Test G Post-Emergence Protocol; settings: Amaranthus retroflexus, post-emergence, 312 h, read-out: Pigweed, Redroot damage rating; for pest or weed control at 15.625 g/ha: 15.625 g ai/ha, evaluated after 13 days (100=total damage to plant; 0=no damage to plant); for pest or weed control at 62.5 g/ha: 62.5 g ai/ha; for pest or weed control at 62.5 g/ha / pest or weed control at 250 g/ha: evaluated after 13 days, 100=total damage to plant, 0=no damage to plant; for pest or weed control at 250 g/ha: 250 g ai/ha
Method in brief: as §2

[12] = tested on: velvetleaf (Abutilon theophrasti); assay: Test G Post-Emergence Protocol; settings: Abutilon theophrasti, post-emergence, 312 h, read-out: Velvetleaf damage rating; for pest or weed control at 15.625 g/ha: 15.625 g ai/ha, evaluated after 13 days (100=total damage to plant; 0=no damage to plant); for pest or weed control at 62.5 g/ha: 62.5 g ai/ha; for pest or weed control at 62.5 g/ha / pest or weed control at 250 g/ha: evaluated after 13 days, 100=total damage to plant, 0=no damage to plant; for pest or weed control at 250 g/ha: 250 g ai/ha
Method in brief: as §2

| Compound | pest or weed control at 15.625 g/ha [1] [%] | pest or weed control at 62.5 g/ha [1] [%] | pest or weed control at 250 g/ha [1] [%] | plant injury at 15.625 g/ha (corn (Zea mays) [2]) [%] | plant injury at 62.5 g/ha (corn (Zea mays) [2]) [%] | plant injury at 250 g/ha (corn (Zea mays) [2]) [%] | pest or weed control at 15.625 g/ha [3] [%] | pest or weed control at 62.5 g/ha [3] [%] | pest or weed control at 250 g/ha [3] [%] | pest or weed control at 15.625 g/ha [4] [%] | pest or weed control at 62.5 g/ha [4] [%] | pest or weed control at 250 g/ha [4] [%] | pest or weed control at 15.625 g/ha [5] [%] | pest or weed control at 62.5 g/ha [5] [%] | pest or weed control at 250 g/ha [5] [%] | pest or weed control at 15.625 g/ha [6] [%] | pest or weed control at 62.5 g/ha [6] [%] | pest or weed control at 250 g/ha [6] [%] | pest or weed control at 15.625 g/ha [7] [%] | pest or weed control at 62.5 g/ha [7] [%] | further results |
| --- | --- | --- | --- | --- | --- | --- | --- | --- | --- | --- | --- | --- | --- | --- | --- | --- | --- | --- | --- | --- | --- |
| CN1C[C@H](c2ccc(C(F)(F)F)cc2)[C@@H](C(=O)Nc2cccc3ccsc23)C1=O (racemic) [Compound 1757] | 0 | 10 | 10 | 0 | 0 | 0 | 0 | 30 | 70 | 0 | 0 | 0 | 0 | 0 | 0 | 0 | 0 | 0 | 0 | 10 | pest or weed control at 250 g/ha [7]: 30%; plant injury at 15.625 g/ha (corn (Zea mays) [8]): 0%; plant injury at 62.5 g/ha (corn (Zea mays) [8]): 0%; plant injury at 250 g/ha (corn (Zea mays) [8]): 0%; pest or weed control at 15.625 g/ha [9]: 0%; pest or weed control at 62.5 g/ha [9]: 20%; pest or weed control at 250 g/ha [9]: 60%; pest or weed control at 15.625 g/ha [10]: 0%; pest or weed control at 62.5 g/ha [10]: 0%; pest or weed control at 250 g/ha [10]: 10%; pest or weed control at 15.625 g/ha [11]: 0%; pest or weed control at 62.5 g/ha [11]: 0%; pest or weed control at 250 g/ha [11]: 0%; pest or weed control at 15.625 g/ha [12]: 0%; pest or weed control at 62.5 g/ha [12]: 0%; pest or weed control at 250 g/ha [12]: 0% |
| COc1ncc([C@@H]2CN(C)C(=O)[C@H]2C(=O)Nc2cccc(F)c2F)cc1Cl (racemic) [Compound 1755] | 70 | 80 | 90 | 20 | 60 | 80 | 80 | 90 | 90 | 0 | 20 | 80 | 0 | 40 | 70 | 0 | 20 | 70 | 60 | 70 | pest or weed control at 250 g/ha [7]: 80%; plant injury at 15.625 g/ha (corn (Zea mays) [8]): 10%; plant injury at 62.5 g/ha (corn (Zea mays) [8]): 80%; plant injury at 250 g/ha (corn (Zea mays) [8]): 80%; pest or weed control at 15.625 g/ha [9]: 70%; pest or weed control at 62.5 g/ha [9]: 80%; pest or weed control at 15.625 g/ha [10]: 60%; pest or weed control at 62.5 g/ha [10]: 70%; pest or weed control at 250 g/ha [10]: 70%; pest or weed control at 15.625 g/ha [11]: 10%; pest or weed control at 62.5 g/ha [11]: 20%; pest or weed control at 250 g/ha [11]: 30%; pest or weed control at 15.625 g/ha [12]: 10%; pest or weed control at 62.5 g/ha [12]: 30%; pest or weed control at 250 g/ha [12]: 60% |
| COC(=O)c1cc([C@H]2CN(C)C(=O)[C@@H]2C(=O)Nc2cccc(F)c2F)ccc1C (racemic) [Compound 1683] | 60 | 70 | 80 | 30 | 50 | 80 | 70 | 80 | 90 | 0 | 10 | 60 | 20 | 20 | 20 | 0 | 10 | 30 | 70 | 70 | pest or weed control at 250 g/ha [7]: 80%; plant injury at 15.625 g/ha (corn (Zea mays) [8]): 20%; plant injury at 62.5 g/ha (corn (Zea mays) [8]): 40%; plant injury at 250 g/ha (corn (Zea mays) [8]): 80%; pest or weed control at 15.625 g/ha [9]: 70%; pest or weed control at 62.5 g/ha [9]: 80%; pest or weed control at 250 g/ha [9]: 80%; pest or weed control at 15.625 g/ha [10]: 30%; pest or weed control at 62.5 g/ha [10]: 30%; pest or weed control at 250 g/ha [10]: 50%; pest or weed control at 15.625 g/ha [11]: 30%; pest or weed control at 62.5 g/ha [11]: 10%; pest or weed control at 250 g/ha [11]: 40%; pest or weed control at 15.625 g/ha [12]: 0%; pest or weed control at 62.5 g/ha [12]: 20%; pest or weed control at 250 g/ha [12]: 50% |

Source: patent US12077503B2, “Substituted cyclic amides and their use as herbicides” (FMC CORPORATION, priority 2015, dated 2024)
